In patent publication US20140343000A1 (priority 2011, published 2014):

system: recombinant NL4-3 virus (Renilla luciferase in nef, Gag P373S; NLRluc) in MT-2 cells; experiment: whole plant or invertebrate; format: cell-based, HIV; conditions: Renilla, NL43, luciferase activity in cells infected for 4-5 days with NLRluc recombinants, serial dilutions of inhibitor; class symbols (key in Table 1); read-out: EC50
Outline: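 MT-2 cells infected 4–5 days with NL4-3 carrying Renilla luciferase in nef and Gag P373S, with serial dilutions of inhibitor present. Antiviral activity quantified by luciferase activity, using Dual Luciferase reagents premixed with lysis buffer and read immediately.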

Row | Compound | EC50
1 | C=C(C)[C@@H]1CC[C@]2(NCCN3CCNCC3)CC[C@]3(C)[C@H](CC[C@@H]4[C@@]5(C)CC=C(c6ccc(C(=O)O)cc6)C(C)(C)[C@@H]5CC[C@]43C)[C@@H]12 [Example B20, 4-((1R,3aS,5aR,5bR,7aR,11aS,11bR,13aR,13bR)-5a,5b,8,8,11a-pentamethyl-3a-((2-(piperazin-1-yl)ethyl)amino)-1-(prop-1-en-2-yl)-2,3,3a,4,5,5a,5b,6,7,7a,8,11,11a,11b,12,13,13a,13b-octadecahydro-1H-cyclopenta[a]chrysen-9-yl)benzoic acid] | < 100 nM
2 | C=C(C)[C@@H]1CC[C@]2(NC(=O)N3CCN(CCN(C)C)CC3)CC[C@]3(C)[C@H](CC[C@@H]4[C@@]5(C)CC=C(c6ccc(C(=O)O)cc6)C(C)(C)[C@@H]5CC[C@]43C)[C@@H]12 [Example 39, 4-((1R,3aS,5aR,5bR,7aR,11aS,11bR,13aR,13bR)-3a-(4-(2-(dimethylamino)ethyl)piperazine-1-carboxamido)-5a,5b,8,8,11a-pentamethyl-1-(prop-1-en-2-yl)-2,3,3a,4,5,5a,5b,6,7,7a,8,11,11a,11b,12,13,13a,13b-octadecahydro-1H-cyclopenta[a]chrysen-9-yl)benzoic acid] | < 100 nM
3 | C=C(C)[C@@H]1CC[C@]2(NC(=O)N(CCN3CCS(=O)(=O)CC3)CCN3CCS(=O)(=O)CC3)CC[C@]3(C)[C@H](CC[C@@H]4[C@@]5(C)CC=C(c6ccc(C(=O)O)cc6)C(C)(C)[C@@H]5CC[C@]43C)[C@@H]12 [Example 69, 4-((1R,3aS,5aR,5bR,7aR,11aS,11bR,13aR,13bR)-3a-((bis(2-(1,1-dioxido-4-thiomorpholinyl)ethyl)carbamoyl)amino)-1-isopropenyl-5a,5b,8,8,11a-pentamethyl-2,3,3a,4,5,5a,5b,6,7,7a,8,11,11a,11b,12,13,13a,13b-octadecahydro-1H-cyclopenta[a]chrysen-9-yl)benzoic acid] | < 100 nM
4 | C=C(C)[C@@H]1CC[C@]2(NC(=O)Cn3cc(-c4ccccc4)cn3)CC[C@]3(C)[C@H](CC[C@@H]4[C@@]5(C)CC=C(c6ccc(C(=O)O)cc6)C(C)(C)[C@@H]5CC[C@]43C)[C@@H]12 [Example 87, 4-((1R,3aS,5aR,5bR,7aR,11aS,11bR,13aR,13bR)-5a,5b,8,8,11a-pentamethyl-3a-(2-(4-phenyl-1H-pyrazol-1-yl)acetamido)-1-(prop-1-en-2-yl)-2,3,3a,4,5,5a,5b,6,7,7a,8,11,11a,11b,12,13,13a,13b-octadecahydro-1H-cyclopenta[a]chrysen-9-yl)benzoic acid] | < 100 nM
5 | C=C(C)[C@@H]1CC[C@]2(NCC3CC3C(=O)O)CC[C@]3(C)[C@H](CC[C@@H]4[C@@]5(C)CC=C(c6ccc(C(=O)O)cc6)C(C)(C)[C@@H]5CC[C@]43C)[C@@H]12 (stereo partly drawn) [Example 157, 4-((1R,3aS,5aR,5bR,7aR,11aS,11bR,13aR,13bR)-3a-((2-carboxycyclopropyl)methylamino)-5a,5b,8,8,11a-pentamethyl-1-(prop-1-en-2-yl)-2,3,3a,4,5,5a,5b,6,7,7a,8,11,11a,11b,12,13,13a,13b-octadecahydro-1H-cyclopenta[a]chrysen-9-yl)benzoic acid] | < 100 nM
6 | C=C(C)[C@@H]1CC[C@]2(NCCNS(=O)(=O)C(C)C)CC[C@]3(C)[C@H](CC[C@@H]4[C@@]5(C)CC=C(c6ccc(C(=O)O)cc6)C(C)(C)[C@@H]5CC[C@]43C)[C@@H]12 [Example B30, 4-((1R,3aS,5aR,5bR,7aR,11aS,11bR,13aR,13bR)-5a,5b,8,8,11a-pentamethyl-3a-((2-(1-methylethylsulfonamido)ethyl)amino)-1-(prop-1-en-2-yl)-2,3,3a,4,5,5a,5b,6,7,7a,8,11,11a,11b,12,13,13a,13b-octadecahydro-1H-cyclopenta[a]chrysen-9-yl)benzoic acid] | < 100 nM
7 | C=C(C)[C@@H]1CC[C@]2(NC(=O)N(CCN3CCOCC3)CC(=O)O)CC[C@]3(C)[C@H](CC[C@@H]4[C@@]5(C)CC=C(c6ccc(C(=O)O)cc6)C(C)(C)[C@@H]5CC[C@]43C)[C@@H]12 [Example 53, 4-((1R,3aS,5aR,5bR,7aR,11aS,11bR,13aR,13bR)-3a-(3-(carboxymethyl)-3-(2-morpholinoethyl)ureido)-5a,5b,8,8,11a-pentamethyl-1-(prop-1-en-2-yl)-2,3,3a,4,5,5a,5b,6,7,7a,8,11,11a,11b,12,13,13a,13b-octadecahydro-1H-cyclopenta[a]chrysen-9-yl)benzoic acid] | < 100 nM
8 | C=C(C)[C@@H]1CC[C@]2(NC(=O)CN3CCCCC3C)CC[C@]3(C)[C@H](CC[C@@H]4[C@@]5(C)CC=C(c6ccc(C(=O)O)cc6)C(C)(C)[C@@H]5CC[C@]43C)[C@@H]12 (stereo partly drawn) [Example 124, 4-((1R,3aS,5aR,5bR,7aR,11aS,11bR,13aR,13bR)-5a,5b,8,8,11a-pentamethyl-3a-(2-(2-methylpiperidin-1-yl)acetamido)-1-(prop-1-en-2-yl)-2,3,3a,4,5,5a,5b,6,7,7a,8,11,11a,11b,12,13,13a,13b-octadecahydro-1H-cyclopenta[a]chrysen-9-yl)benzoic acid] | < 100 nM
9 | C=C(C)[C@@H]1CC[C@]2(NC(=O)NCCN3CCCCC3=O)CC[C@]3(C)[C@H](CC[C@@H]4[C@@]5(C)CC=C(c6ccc(C(=O)O)cc6)C(C)(C)[C@@H]5CC[C@]43C)[C@@H]12 [Example 27, 4-((1R,3aS,5aR,5bR,7aR,11aS,11bR,13aR,13bR)-5a,5b,8,8,11a-pentamethyl-3a-(3-(2-(2-oxopiperidin-1-yl)ethyl)ureido)-1-(prop-1-en-2-yl)-2,3,3a,4,5,5a,5b,6,7,7a,8,11,11a,11b,12,13,13a,13b-octadecahydro-1H-cyclopenta[a]chrysen-9-yl)benzoic acid] | < 100 nM
10 | C=C(C)[C@@H]1CC[C@]2(NCCN3CCN(S(=O)(=O)c4ccc(CC)cc4)CC3)CC[C@]3(C)[C@H](CC[C@@H]4[C@@]5(C)CC=C(c6ccc(C(=O)O)cc6)C(C)(C)[C@@H]5CC[C@]43C)[C@@H]12 [Example B40, 4-((1R,3aS,5aR,5bR,7aR,11aS,11bR,13aR,13bR)-3a-((2-(4-((4-ethylphenyl)sulfonyl)piperazin-1-yl)ethyl)amino)-5a,5b,8,8,11a-pentamethyl-1-(prop-1-en-2-yl)-2,3,3a,4,5,5a,5b,6,7,7a,8,11,11a,11b,12,13,13a,13b-octadecahydro-1H-cyclopenta[a]chrysen-9-yl)benzoic acid] | < 100 nM
11 | C=C(C)[C@@H]1CC[C@]2(NC(=O)N3CCCNCC3)CC[C@]3(C)[C@H](CC[C@@H]4[C@@]5(C)CC=C(c6ccc(C(=O)O)cc6)C(C)(C)[C@@H]5CC[C@]43C)[C@@H]12 [Example 55, 4-((1R,3aS,5aR,5bR,7aR,11aS,11bR,13aR,13bR)-3a-(1,4-diazepane-1-carboxamido)-5a,5b,8,8,11a-pentamethyl-1-(prop-1-en-2-yl)-2,3,3a,4,5,5a,5b,6,7,7a,8,11,11a,11b,12,13,13a,13b-octadecahydro-1H-cyclopenta[a]chrysen-9-yl)benzoic acid] | < 100 nM
12 | C=C(C)[C@@H]1CC[C@]2(NC(=O)CCCN(C)C)CC[C@]3(C)[C@H](CC[C@@H]4[C@@]5(C)CC=C(c6ccc(C(=O)O)cc6)C(C)(C)[C@@H]5CC[C@]43C)[C@@H]12 [Example 74, 4-((1R,3aS,5aR,5bR,7aR,11aS,11bR,13aR,13bR)-3a-(4-(dimethylamino)butanamido)-5a,5b,8,8,11a-pentamethyl-1-(prop-1-en-2-yl)-2,3,3a,4,5,5a,5b,6,7,7a,8,11,11a,11b,12,13,13a,13b-octadecahydro-1H-cyclopenta[a]chrysen-9-yl)benzoic acid] | < 100 nM
13 | C=C(C)[C@@H]1CC[C@]2(NCCN3CCN(C(=O)CC(C)C)CC3)CC[C@]3(C)[C@H](CC[C@@H]4[C@@]5(C)CC=C(c6ccc(C(=O)O)cc6)C(C)(C)[C@@H]5CC[C@]43C)[C@@H]12 [Example B59, 4-((1R,3aS,5aR,5bR,7aR,11aS,11bR,13aR,13bR)-5a,5b,8,8,11a-pentamethyl-3a-((2-(4-(3-methylbutanoyl)piperazin-1-yl)ethyl)amino)-1-(prop-1-en-2-yl)-2,3,3a,4,5,5a,5b,6,7,7a,8,11,11a,11b,12,13,13a,13b-octadecahydro-1H-cyclopenta[a]chrysen-9-yl)benzoic acid] | < 100 nM
14 | C=C(C)[C@@H]1CC[C@]2(NC(=O)N(CCCO)CCN3CCS(=O)(=O)CC3)CC[C@]3(C)[C@H](CC[C@@H]4[C@@]5(C)CC=C(c6ccc(C(=O)O)cc6)C(C)(C)[C@@H]5CC[C@]43C)[C@@H]12 [Example 66, 4-((1R,3aS,5aR,5bR,7aR,11aS,11bR,13aR,13bR)-3a-(((2-(1,1-dioxido-4-thiomorpholinyl)ethyl)(3-hydroxypropyl)carbamoyl)amino)-1-isopropenyl-5a,5b,8,8,11a-pentamethyl-2,3,3a,4,5,5a,5b,6,7,7a,8,11,11a,11b,12,13,13a,13b-octadecahydro-1H-cyclopenta[a]chrysen-9-yl)benzoic acid] | < 100 nM

same assay, conditions: Renilla, NL43, luciferase activity in cells infected for 4-5 days with NLRluc recombinants, serial dilutions of inhibitor; numeric values; read-out: EC50

Row | Compound | EC50
15 | C=C(C)[C@@H]1CC[C@]2(NC(=O)N(CCN)CCC(=O)O)CC[C@]3(C)[C@H](CC[C@@H]4[C@@]5(C)CC=C(c6ccc(C(=O)O)cc6)C(C)(C)[C@@H]5CC[C@]43C)[C@@H]12 [Example 43, 4-((1R,3aS,5aR,5bR,7aR,11aS,11bR,13aR,13bR)-3a-(3-(2-aminoethyl)-3-(2-carboxyethyl)ureido)-5a,5b,8,8,11a-pentamethyl-1-(prop-1-en-2-yl)-2,3,3a,4,5,5a,5b,6,7,7a,8,11,11a,11b,12,13,13a,13b-octadecahydro-1H-cyclopenta[a]chrysen-9-yl)benzoic acid] | 30 nM
